According to patent US20040072201A1, “Methods of identifying compounds that inhibit nonstop degradation of mRNA” (priority 2002, published 2004):

Tests used:
[1] = system: WT-PGK1 and Ter-poly(A)-PGK1 transcripts; assay: half-lives of WT-PGK1 and Ter-poly(A)-PGK1 transcripts in yeast treated with paromomycin; type: cell-based, Saccharomyces cerevisiae; details: 100 μg/ml CHX added during the last hour before half-life determination
Procedure: FIG. 2 depicts graphs of the half-lives of WT-PGK1 and Ter-poly(A)-PGK1 transcripts in wild-type-(WT) and SK17-deleted (ski7A) yeast strains treated with the indicated dose of paromomycin (mg/ml) (PM) for 20 hours. For cycloheximide (CHX) experiments, yeast were treated identically except 100 μg/ml of CHX was added during the last hour before half-life determination.
Any event that diminishes translational fidelity and promotes readthrough of termination codons could plausibly result in the generation of substrates for nonstop decay. In view of recent attempts to treat genetic disorders resulting from PTCs with long-term and high-dose aminoglycoside regimens, this may achieve medical significance. As a proof-of-concept experiment, we examined the performance of transcripts with one [Ter-poly(A)-PGK1] or multiple (WT-PGK1) in-frame termination codons (including those in the 3′ UTR) in yeast strains after treatment with paromomycin, which induces ribosomal readthrough.
27. All PGK1 minigene constructs were under the control of the GAL1 upstream activation sequence (UAS). […] Half-lives were determined by plotting the percent of mRNA remaining versus time on a semi-log plot. All half-lives were determined at 25° C. except for the ccr4Δ (performed at 30° C.) and dcp1-2 [performed after shift to the nonpermissive temp (37° C.) for 1 hour] experiments.

nonstop-PGK1 transcripts = assay: nonstop-PGK1 mRNA stability (half-life by Northern blot) in yeast; type: cell-based, Saccharomyces cerevisiae; details: treatment with translation inhibitor
Description: In order to determine whether the presence of translational termination influences mRNA stability, we assayed PGK1 tran-scripts in Saccharomyces cerevisiae derived from the following constructs (3): wild-type PGK1 (WT-PGK1), a nonsense form of PGK1 harboring a PTC at codon 22 [PTC(22)-PGK1], and nonstop-PGK1 that was created by removing the bona fide termination codon and all in-frame termination codons in the 3′ UTR (untranslated region) from the WT-PGK1 transcript. Nonstop-PGK1 transcripts were as labile as their nonsense-containing counterparts. At least three trans-acting factors (Upf1p, Upf2p, and Upf3p) are essential for nonsense-mediated mRNA decay (NMD) in S. cerevisiae (4, 5). Remarkably, nonstop transcripts were not stabilized in strains lacking Upf1p, distinguishing the pathway of decay from NMD.
Additional experiments were performed to assess the role of translation in nonstop decay. […] It has been shown that translation into the 3′ UTR of selected transcripts can displace bound trans-factors that are positive determinants of message stability (13, 14). […]
27. […] Half-lives were determined by plotting the percent of mRNA remaining versus time on a semi-log plot. All half-lives were determined at 25° C. except for the ccr4Δ (performed at 30° C.) and dcp1-2 [performed after shift to the nonpermissive temp (37° C.) for 1 hour] experiments.

[2] = system: cultured chicken hepatocellular carcinoma cells; assay: ratio of truncated to full-length GHR transcripts after translational arrest; type: cell-based; details: after treatment with translational inhibitor
[3] = system: termination codon (UGA) in renilla luciferase ORF; assay: readthrough assay using a dual luciferase reporter construct; type: cell-based
Description: FIG. 3 depicts the results of a readthrough assay using a dual luciferase reporter construct.
This example describes a readthrough assay that uses a dual lucifierase reporter construct. The firefly luciferase ORF is wild-type while translation of the renilla luciferase ORF is prevented by the presence of a termination codon (UGA). Cells were either untreated or treated with siRNAs directed against RRP4, an essential component of the exosome.

C[C@@H]1C[C@@H]([C@H](O)CC2CC(=O)NC(=O)C2)C(=O)[C@@H](C)C1 [cycloheximide]
effect on paromomycin-induced decrease in stability of Ter-poly(A)-PGK1 and WT-PGK1 transcripts [1]: could be reversed
stability of nonstop-PGK1 transcripts (nonstop-PGK1 transcripts): substantially increased the stability

CC[C@H]1CN2CCc3cc(OC)c(OC)cc3[C@@H]2C[C@@H]1C[C@H]1NCCc2cc(OC)c(OC)cc21 [emetine]
ratio of truncated-to-full-length GHR transcripts [2]: dramatically increased

gentamycin
readthrough, renilla:firefly ratio ([3]; exosome function inhibited by siRNAs directed against RRP4, increasing concentrations): dose-dependent increase in readthrough
readthrough, renilla:firefly ratio ([3]; intact exosome function (control RNAi), increasing concentrations): do not result in a significant increase in readthrough
